Test results reported in the METLIN SMRT retention time set (Domingo-Almenara et al. 2019).

Assay: gradient 5% acetonitrile 3 min, to 50% in 2 min, to 85% in 15 min, held 3 min, 100 µL/min
Settings: column: Zorbax Extend-C18 2.1 x 50 mm; eluents: water / acetonitrile, 0.1% formic acid
How it was run: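 The mobile phases were water and acetonitrile, each with 0.1% formic acid, pumped at 100 μL/min through a Zorbax Extend-C18 column (2.1 × 50 mm, 1.8 μm). Pure standards were injected as mixtures of ~100 molecules and detected by a quadrupole time-of-flight mass spectrometer in positive and negative ionization mode. Retention time came from computationally picked adduct peaks, each inspected by hand.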

Row | Structure (SMILES) | RP-LC retention time [s]
1 | O=C(Cc1csc(Nc2ncccn2)n1)Nc1ccc2c(c1)Cc1ccccc1-2 | 845
2 | CCOc1ccc2nc(NC(=O)CCc3csc(NC(=O)c4ccco4)n3)sc2c1 | 844
3 | COc1ccc(C(=O)CC2(O)C(=O)Nc3c(C)cccc32)cc1OC (centres undefined) | 688
4 | CCN1C(=O)COc2ccc(-c3noc(/C=C/c4ccccc4)n3)cc21 | 1170
5 | COCc1cc(=O)n2c(n1)N(Cc1c(C)noc1C)CC2 | 626
6 | O=C(CSc1nnc(-c2cccc(Br)c2)o1)c1ccc([N+](=O)[O-])cc1 | 1020
7 | CCOC(=O)[C@H]1[C@H]2C=C[C@]3(CN(c4ccccc4C)C(=O)[C@@H]13)O2 | 717
8 | Cc1cc(=O)n(CC(=O)NCc2ccc3c(c2)OCO3)c(N2CCc3ccccc3C2)n1 | 718
9 | c1ccc(-c2nnc(-c3ccccn3)s2)nc1 | 850
10 | COC(=O)c1nc(NC(=O)Cn2nc3c(cc2=O)CCCC3)sc1CC(C)C | 855
11 | Clc1cccc2sc(NCC3CCCO3)nc12 (centres undefined) | 811
12 | CCc1ccccc1NC(=O)Cn1c(=O)n(-c2ccc(C)cc2)c(=O)c2c1cc(C)n2C | 892
13 | O=C(CN1CCN(Cc2ccc(F)cc2)C1=O)NCc1ccc(OC(F)(F)F)cc1 | 901
14 | COCCCNc1c(-c2ccc(C)cc2)nc2sc(C(=O)N(C)C)c(C)n12 | 732
15 | COC(=O)c1cccc(NC(=O)Nc2c(-c3cccnc3)[nH]c3ccccc23)c1 | 667
16 | Cc1nnc(NC(=O)CN(C)c2nc3c(Cl)cccc3s2)s1 | 742
17 | Cc1ccc(-c2nc(N)n(C(=O)C3CC3)n2)cc1C | 962
18 | CCC(=O)Nc1ccc(-n2cnc(C(=O)NCc3ccc(F)c(Cl)c3)c2)nc1 | 760
19 | CCOc1cccc(C2CC(c3ccccc3)=NC3(CCN(C(C)C)CC3)N2)c1O (centres undefined) | 612
20 | COc1cccc2cc(C(=O)Nc3nnc(Cc4ccc(Cl)s4)o3)oc12 | 860
21 | COC(=O)COC(=O)c1cn(-c2ccc(F)cc2)c(=O)c2ccccc12 | 919

Row | Structure (SMILES) | RP-LC retention time [s]
22 | Cc1ccccc1NC(=O)NCCn1c(C(F)(F)F)nc2cccnc21 | 736
23 | Cc1cccc(-c2csc3c(=O)n(Cc4ccc(N5CCCC5=O)cc4)cnc23)c1 | 937
24 | Cn1c(C(=O)NCCc2c[nH]c3ccccc23)cc2c(-c3cccs3)nn(-c3ccccc3)c21 | 969
25 | COc1ccc(N2C=C(C#N)S(=O)(=O)c3ccc(Cl)cc32)c(OC)c1 | 995
26 | Cn1cc(-c2ccccc2)c2c1c(=O)n(C)c1nn(Cc3nc(-c4ccccc4)no3)c(=O)n21 | 1040
27 | Cc1cccc(-c2nc3nc(C)cc(N4CCCC4)n3n2)c1 | 768
28 | Cc1nc(-c2ccccc2)cc2nn(CC(=O)NCc3ccccc3)c(=O)n12 | 873
29 | Cc1nn(C)c(=O)c2cc(S(=O)(=O)NCc3ccccc3Cl)cn12 | 807
30 | CCCc1noc(-c2ccnc(-n3ncc(C(=O)NC(C)C)c3C)c2)n1 | 868
31 | CC(C)n1nnc2cc(C(=O)N(C)CC(=O)Nc3ccc(Br)cc3F)ccc21 | 803
32 | O=c1c2c(CO)c(-c3ccccc3)nn2ccn1Cc1ccccc1Cl | 961
33 | Cc1ccc(-c2nc3ccccn3c2NC(=O)NCc2ccc(F)cc2)cc1 | 681
34 | CCN1C(=O)c2cccnc2Sc2cc(NC(=O)c3cccs3)ccc21 | 796
35 | CN1C(=O)Cc2ccccc2C1C(=O)NCc1cc(F)ccc1F (centres undefined) | 716
36 | CC(NS(=O)(=O)c1cccc(Cl)c1)C(=O)Nc1ccc(Br)cc1F (centres undefined) | 912
37 | CN(C)c1ccc(C(CNC(=O)c2ccc(Br)o2)N2CCCC2)cc1 (centres undefined) | 572
38 | COc1ccc(Br)cc1CNC(=O)Cn1cc(-c2nnco2)c2ccccc21 | 855
39 | CCn1cc(C2=CCN(C(=O)NCc3ccc(C)cc3)CC2)c2cccnc21 | 873
40 | Cc1ccc2c(c1)OCC(=O)N2Cc1nc(-c2ccc(Br)cc2)no1 | 1180
41 | O=C([C@@H]1C[C@H](F)CN1C(=O)Nc1ccc(F)cc1)N1CCOCC1 | 608
42 | CCOc1ccc2nc(Nc3ncc4c(n3)CC(c3cccc(Cl)c3)CC4=O)nc(C)c2c1 (centres undefined) | 899

Row | Structure (SMILES) | RP-LC retention time [s]
43 | O=C(NCCc1nc(-c2ccccc2)no1)c1sc2cccc(Cl)c2c1Cl | 1200
44 | CCn1cc(C)c(C(=O)O)c1CC(=O)Nc1cc(Cl)c(OC)cc1OC | 901
45 | Cn1c(CNC(=O)CCc2cc3ccccc3[nH]c2=O)nc2ccccc21 | 601
46 | CC1(C)O[C@@H]2C[C@H]3[C@@H]4CCC5=CC(=O)C=C[C@]5(C)[C@H]4[C@@H](O)C[C@]3(C)[C@]2(C(=O)CO)O1 | 814
47 | Cc1nn(-c2ccc(F)cc2)c2sc(C(=O)NCCc3ccco3)cc12 | 1060
48 | CC(=O)c1ccc(Nc2ncnc3c2cnn3-c2ccccc2Cl)cc1 | 804
49 | Cc1ccccc1NC(=O)CSc1nc(=O)n(CCN(C)C)c2c1CCC2 | 610
50 | O=C(CC(F)(F)F)N1CCC(c2noc(-c3ccccc3)n2)C1 (centres undefined) | 870
51 | CCOc1coc(C(=O)NCCc2ccc(Cl)cc2)cc1=O | 706
52 | O=C(NCc1ccc(F)cc1Cl)c1csc(C(=O)N2CCCC2)n1 | 864
53 | Cc1nnc(-c2c(S(=O)(=O)NCc3ccco3)c(C)n(C)c2C)o1 | 729
54 | CCCCC(=O)Nc1nc(-c2ccc3c(c2)N(C)C(=O)CO3)cs1 | 900
55 | COC[C@@H]1CN(C(=O)c2ccc(C#N)cc2)C[C@H]1C(N)=O | 571
56 | CCOc1ccccc1C(=O)Nc1nnc(SC(C)c2ccccc2)s1 (centres undefined) | 1140
57 | CCc1ccc(-c2ccc(=O)n(CCc3nc(-c4cccc(C)c4)no3)n2)cc1 | 1180
58 | O=C(Nc1c(F)c(F)c(F)c(F)c1F)c1cc2sccc2n1Cc1ccc(F)cc1 | 1180
59 | O=C(CN1C(=O)NC2(CCCCC2)C1=O)NCCc1ccc(Cl)cc1 | 790
60 | Cc1[nH]c(C(=O)N2CCC(CC(=O)NCCC(C)C)CC2)c(C)c1C | 813
61 | COCCCNC(=O)C1c2ccccc2C(=O)N1Cc1ccccc1C (centres undefined) | 753

Continued, values first:

Row | RP-LC retention time [s] | Structure (SMILES)
62 | 662 | COCCNC(=O)CSc1cc(N2CCN(c3ccc(OC)cc3)CC2)ncn1
63 | 761 | CCn1c(=O)sc2cc(S(=O)(=O)N3CCC(C(=O)N4CCCC4)CC3)ccc21
64 | 890 | CC1CCN(C(=O)CSCC(=O)Nc2nc(-c3ccc4c(c3)OCO4)cs2)CC1
65 | 860 | O=C(Nc1ccccc1Br)C1CCCN(C(=O)c2ccccc2F)C1 (centres undefined)
66 | 1050 | COc1ccc(-c2ncc3c(n2)CCN(S(=O)(=O)c2ccc(C)cc2)C3)cc1
67 | 972 | COc1ccc(C(=O)N2CCc3cc(-c4csc(C)n4)ccc32)cc1
68 | 952 | COc1ccc(C2C(=O)N(C3CCCCC3)CC(=O)N2Cc2cccs2)cc1 (centres undefined)
69 | 940 | CCOC(=O)C1CCN(C(=O)C2CCCN(S(=O)(=O)c3ccc(OC)c(Cl)c3)C2)CC1 (centres undefined)
70 | 746 | COC(=O)c1cccc(NC(=O)C2CCc3nc(N4CCOCC4)ncc3C2)c1 (centres undefined)
71 | 795 | COc1cccc(S(=O)(=O)N2CCN(c3cc(C)nc(NC4CCCCC4)n3)CC2)c1
72 | 635 | COc1ccc(N2CCN(C(=O)Cn3ncc4c(c3=O)N(C)C(=O)CS4)CC2)cc1
73 | 835 | COc1ccc(OC)c(-c2cn3ccn(-c4cccc(F)c4)c(=O)c3n2)c1
74 | 1150 | COc1ccc(NCc2ccc3c(c2)n(C)c(=O)n3C)cc1Cl
75 | 554 | COc1ccc(C2C(C(C)=O)=C(O)C(=O)N2CCCN2CCOCC2)c(OC)c1 (centres undefined)
76 | 888 | O=C(NCc1ccccc1Cl)c1nnc(-c2ccc(S(=O)(=O)N3CCOCC3)cc2)o1
77 | 575 | CCN1CCN(CCNC(=O)CCCN2C(=O)CCn3nc(-c4cccn4C)cc32)CC1
78 | 720 | COc1ccc(-c2nnc(SCC(=O)Nc3nccs3)o2)cc1
79 | 841 | CCCNC(=O)N(C1CCOCC1)C1CCN(S(=O)(=O)c2ccc(C)cc2C)CC1
80 | 613 | CCCc1cc(N2CCN(C(=O)c3cccs3)CC2)nc2nnc(C)n12
81 | 590 | O=C(NCCCN1CCCC1=O)c1cccc(N2CCNC(c3ccccc3)C2)n1 (centres undefined)
82 | 715 | COc1ccc(OC)c(NC(=O)Cn2nc3n(c2=O)CCCCC3)c1
83 | 723 | Cc1nc(-c2csc(S(=O)(=O)N3CCC(C(=O)NC4CC4)CC3)c2)no1
84 | 893 | O=C(C1CCN(c2nc3ccc(-c4ccsc4)nc3s2)CC1)N1CCCC1
85 | 581 | CN1CCc2nnc(C3CCCN3C(=O)Nc3ccc(Cl)cc3F)n2CC1 (centres undefined)
86 | 636 | Cc1cc(N2CCOCC2)nc(N2CCN(C(=O)c3cccc(Br)c3)CC2)n1
87 | 657 | Cc1nnc2cc(N3CCN(C(=O)Nc4ccc(Cl)cc4)CC3)cnn12
88 | 923 | COc1ccc(N2CCN(C(=O)c3cc(S(=O)(=O)N4CCC(C)CC4)cn3C)CC2)cc1
89 | 923 | COc1ccc(NC(=O)c2csc(-c3cn(C)c4ncccc34)n2)cc1
